According to ChEMBL document CHEMBL2413072, “Synthesis and in vitro anticancer studies of novel C-2 arylidene congeners of lantadenes” (2013):

Legend:
Format in all cases: functional
CCRF-CEM [1] = test: Growth inhibition of human CCRF-CEM cells assessed as cell growth at 10 uM by sulforhodamine B assay; settings: read-out: Activity
HCT-116 = test: Growth inhibition of human HCT116 cells assessed as cell growth at 10 uM by sulforhodamine B assay; settings: read-out: Activity
RXF 393 [2] = test: Growth inhibition of human RXF393 cells assessed as cell growth at 10^-7 M by sulforhodamine B assay; settings: read-out: Activity
DU-145 = test: Growth inhibition of human DU145 cells assessed as cell growth at 10^-6 M by sulforhodamine B assay; settings: read-out: Activity
[3] = Growth inhibition of human Hs 578T cells assessed as growth inhibition at 10 uM by sulforhodamine B assay; settings: read-out: GI
BT-549 [4] = test: Growth inhibition of human BT549 cells assessed as cell growth at 10^-8 M by sulforhodamine B assay; settings: read-out: Activity
T47D [5] = test: Growth inhibition of human T47D cells assessed as cell growth at 10 uM by sulforhodamine B assay; settings: read-out: Activity
OVCAR-3 = test: Growth inhibition of human OVCAR3 cells by sulforhodamine B assay
A498 [6] = test: Growth inhibition of human A498 cells assessed as cell growth at 10^-8 M by sulforhodamine B assay; settings: read-out: Activity
OVCAR-5 = test: Growth inhibition of human OVCAR5 cells assessed as cell growth at 10^-6 M by sulforhodamine B assay; settings: read-out: Activity
A498 [7] = test: Growth inhibition of human A498 cells assessed as cell growth at 10 uM by sulforhodamine B assay; settings: read-out: Activity
BT-549 [8] = test: Growth inhibition of human BT549 cells assessed as cell growth at 10 uM by sulforhodamine B assay; settings: read-out: Activity
HOP-92 = test: Growth inhibition of human HOP92 cells assessed as cell growth at 10^-8 M by sulforhodamine B assay; settings: read-out: Activity
HT-29 = test: Growth inhibition of human HT-29 cells assessed as cell growth at 10^-6 M by sulforhodamine B assay; settings: read-out: Activity
T47D [9] = test: Growth inhibition of human T47D cells assessed as cell growth at 10^-7 M by sulforhodamine B assay; settings: read-out: Activity
UO-31 = test: Growth inhibition of human UO31 cells assessed as growth inhibition at 10 uM by sulforhodamine B assay; settings: read-out: GI
ACHN = test: Growth inhibition of human ACHN cells assessed as growth inhibition at 10 uM by sulforhodamine B assay; settings: read-out: GI
SF-539 [10] = test: Growth inhibition of human SF539 cells by sulforhodamine B assay
OVCAR-8 = test: Growth inhibition of human OVCAR8 cells assessed as growth inhibition at 10 uM by sulforhodamine B assay; settings: read-out: GI
UACC-62 = test: Growth inhibition of human UACC62 cells by sulforhodamine B assay
NCI-H460 = test: Growth inhibition of human NCI-H460 cells assessed as cell growth at 10 uM by sulforhodamine B assay; settings: read-out: Activity
LOX IMVI [11] = test: Growth inhibition of human LOXIMVI cells assessed as cell growth at 10 uM by sulforhodamine B assay; settings: read-out: Activity
786-0 = test: Growth inhibition of human 786-0 cells assessed as cell growth at 10^-6 M by sulforhodamine B assay; settings: read-out: Activity
CCRF-CEM [12] = test: Growth inhibition of human CCRF-CEM cells assessed as growth inhibition at 10 uM by sulforhodamine B assay; settings: read-out: GI
[13] = Growth inhibition of human HCC2998 cells by sulforhodamine B assay
SR = test: Growth inhibition of human SR cells assessed as cell growth at 10 uM by sulforhodamine B assay; settings: read-out: Activity
NCI-H322M = test: Growth inhibition of human NCI-H322M cells assessed as cell growth at 10^-6 M by sulforhodamine B assay; settings: read-out: Activity
LOX IMVI [14] = test: Growth inhibition of human LOXIMVI cells assessed as growth inhibition at 10 uM by sulforhodamine B assay; settings: read-out: GI
SK-MEL-28 = test: Growth inhibition of human SK-MEL-28 cells assessed as cell growth at 10^-8 M by sulforhodamine B assay; settings: read-out: Activity
SW-620 [15] = test: Growth inhibition of human SW620 cells by sulforhodamine B assay
SF-539 [16] = test: Growth inhibition of human SF539 cells assessed as cell growth at 10^-8 M by sulforhodamine B assay; settings: read-out: Activity
IGROV-1 = test: Growth inhibition of human IGROV1 cells assessed as cell growth at 10^-4 M by sulforhodamine B assay; settings: read-out: Activity
SW-620 [17] = test: Growth inhibition of human SW620 cells assessed as cell growth at 10^-6 M by sulforhodamine B assay; settings: read-out: Activity
NCI-H226 = test: Growth inhibition of human NCI-H226 cells assessed as cell growth at 10 uM by sulforhodamine B assay; settings: read-out: Activity
T47D [18] = test: Growth inhibition of human T47D cells assessed as cell growth at 10^-6 M by sulforhodamine B assay; settings: read-out: Activity
A549 = test: Growth inhibition of human A549/ATCC cells by sulforhodamine B assay
MCF7 = test: Growth inhibition of human MCF7 cells assessed as cell growth at 10 uM by sulforhodamine B assay; settings: read-out: Activity
M14 = test: Growth inhibition of human M14 cells assessed as growth inhibition at 10 uM by sulforhodamine B assay; settings: read-out: GI
SF-268 = test: Growth inhibition of human SF268 cells assessed as growth inhibition at 10 uM by sulforhodamine B assay; settings: read-out: GI
HOP-62 = test: Growth inhibition of human HOP62 cells assessed as cell growth at 10^-8 M by sulforhodamine B assay; settings: read-out: Activity
RXF 393 [19] = test: Growth inhibition of human RXF393 cells assessed as growth inhibition at 10 uM by sulforhodamine B assay; settings: read-out: GI
RXF 393 [20] = test: Growth inhibition of human RXF393 cells assessed as cell growth at 10 uM by sulforhodamine B assay; settings: read-out: Activity
SN12C = test: Growth inhibition of human SN12C cells assessed as growth inhibition at 10 uM by sulforhodamine B assay; settings: read-out: GI
[21] = read-out: LC50 (the source's name)
[22] = read-out: pLC50 (the source's name) (converted)

## CC(C)=CC(=O)O[C@@H]1CC(C)(C)C[C@H]2C3=CC[C@@H]4[C@@]5(C)CC[C@H](O)C(C)(C)[C@@H]5CC[C@@]4(C)[C@]3(C)CC[C@@]12C(=O)O [Reduced Lantadene B]
CCRF-CEM [1]
  growth at 10 µM: 27.4%
HCT-116
  growth at 10 µM: 27.2%
RXF 393 [2]
  growth at 0.1 µM: 95%
DU-145
  growth at 1 µM: 94%
[3]
  inhibition of growth at 10 µM: 14.5%
BT-549 [4]
  growth at 0.01 µM: 97%
T47D [5]
  growth at 10 µM: 86.7%
OVCAR-3; read-out: GI50
  GI50: 7.04 µM
OVCAR-3; [21]
  CC50: 54.7 µM
OVCAR-3; read-out: TGI
  TGI: 22.1 µM
OVCAR-3; read-out: pGI50 (converted)
  GI50: 7.08 µM
OVCAR-3; [22]
  CC50: 55 µM
OVCAR-3; read-out: pTGI (converted)
  TGI: 21.9 µM
A498 [6]
  growth at 0.01 µM: 84%
OVCAR-5
  growth at 1 µM: 106%
A498 [7]
  growth at 10 µM: 100%
BT-549 [8]
  growth at 10 µM: 78.1%
HOP-92
  growth at 0.01 µM: 91%
HT-29
  growth at 1 µM: 89%
T47D [9]
  growth at 0.1 µM: 95%
UO-31
  inhibition of growth at 10 µM: 39.1%
ACHN
  inhibition of growth at 10 µM: 53.7%
SF-539 [10]; read-out: GI50
  GI50: 8.94 µM
SF-539 [10]; [21]
  CC50: > 100 µM
SF-539 [10]; read-out: TGI
  TGI: 36.2 µM
SF-539 [10]; read-out: pGI50 (converted)
  GI50: 8.91 µM
SF-539 [10]; [22]
  CC50: > 100 µM
SF-539 [10]; read-out: pTGI (converted)
  TGI: 36.3 µM
OVCAR-8
  inhibition of growth at 10 µM: 40.1%
UACC-62; read-out: GI50
  GI50: 1.95 µM
UACC-62; [21]
  CC50: 25.2 µM
UACC-62; read-out: TGI
  TGI: 5.48 µM
UACC-62; read-out: pGI50 (converted)
  GI50: 1.95 µM
UACC-62; [22]
  CC50: 25.1 µM
UACC-62; read-out: pTGI (converted)
  TGI: 5.5 µM
NCI-H460
  growth at 10 µM: 50.3%
LOX IMVI [11]
  growth at 10 µM: 53.2%
786-0
  growth at 1 µM: 93%
CCRF-CEM [12]
  inhibition of growth at 10 µM: 72.6%
[13]; HCC 2998, read-out: GI50
  GI50: 3.72 µM
[13]; HCC 2998, read-out: LC50 (the source's name)
  CC50: 62.9 µM
[13]; HCC 2998, read-out: TGI
  TGI: 15.3 µM
[13]; HCC 2998, read-out: pGI50 (converted)
  GI50: 3.72 µM
[13]; HCC 2998, read-out: pLC50 (the source's name) (converted)
  CC50: 63.1 µM
[13]; HCC 2998, read-out: pTGI (converted)
  TGI: 15.5 µM
SR
  growth at 10 µM: 70.2%
NCI-H322M
  growth at 1 µM: 94%
LOX IMVI [14]
  inhibition of growth at 10 µM: 46.8%
SK-MEL-28
  growth at 0.01 µM: 100%
SW-620 [15]; read-out: GI50
  GI50: 5.69 µM
SW-620 [15]; [21]
  CC50: > 100 µM
SW-620 [15]; read-out: TGI
  TGI: 52.6 µM
SW-620 [15]; read-out: pGI50 (converted)
  GI50: 5.75 µM
SW-620 [15]; [22]
  CC50: > 100 µM
SW-620 [15]; read-out: pTGI (converted)
  TGI: 52.5 µM
SF-539 [16]
  growth at 0.01 µM: 96%
IGROV-1
  growth at 100 µM: -43%
SW-620 [17]
  growth at 1 µM: 87%
NCI-H226
  growth at 10 µM: 78.7%
T47D [18]
  growth at 1 µM: 96%
A549; read-out: GI50
  GI50: 0.438 µM
A549; [21]
  CC50: 82.4 µM
A549; read-out: TGI
  TGI: 14.9 µM
A549; read-out: pGI50 (converted)
  GI50: 0.437 µM
A549; [22]
  CC50: 83.2 µM
A549; read-out: pTGI (converted)
  TGI: 14.8 µM
MCF7
  growth at 10 µM: 62.7%
M14
  inhibition of growth at 10 µM: < 10%
SF-268
  inhibition of growth at 10 µM: < 10%
HOP-62
  growth at 0.01 µM: 85%
RXF 393 [19]
  inhibition of growth at 10 µM: 14.8%
RXF 393 [20]
  growth at 10 µM: 85.2%
SN12C
  inhibition of growth at 10 µM: 49.1%
